{"source": "ChEMBL document CHEMBL3045835", "about": "“Comparative study of conventional and microwave-assisted synthesis of some Schiff bases and their potential as antimicrobial agents” (2012)", "assay_type_in_all_cases": "functional", "key": {"Bacillus subtilis [1]": {"test_system": "Bacillus subtilis", "test": "Antibacterial activity against Bacillus subtilis MTCC 441 at 200 ug/ml after 18 hr by cup plate method", "conditions": "MTCC 441, 18 h, read-out: DIZ"}, "Aspergillus niger [2]": {"test_system": "Aspergillus niger", "test": "Antifungal activity against Aspergillus niger MTCC 2546 after 24 hr by broth dilution method", "conditions": "MTCC 2546, 24 h"}, "Escherichia coli [3]": {"test_system": "Escherichia coli", "test": "Antibacterial activity against Escherichia coli MTCC 1573 after 24 hr by broth dilution method", "conditions": "MTCC 1573, 24 h"}, "Pseudomonas aeruginosa [4]": {"test_system": "Pseudomonas aeruginosa", "test": "Antibacterial activity against Pseudomonas aeruginosa MTCC 424 at 1000 ug/ml after 18 hr by cup-plate method", "conditions": "MTCC 424, 18 h, read-out: DIZ"}, "Bacillus subtilis [5]": {"test_system": "Bacillus subtilis", "test": "Antibacterial activity against Bacillus subtilis MTCC 441 after 24 hr by broth dilution method", "conditions": "MTCC 441, 24 h"}, "Pseudomonas fluorescens [6]": {"test_system": "Pseudomonas fluorescens", "test": "Antibacterial activity against Pseudomonas fluorescens MTCC 2421 at 1000 ug/ml after 18 hr by cup-plate method", "conditions": "MTCC 2421, 18 h, read-out: DIZ"}, "Pseudomonas aeruginosa [7]": {"test_system": "Pseudomonas aeruginosa", "test": "Antibacterial activity against Pseudomonas aeruginosa MTCC 424 at 100 ug/ml after 18 hr by cup-plate method", "conditions": "MTCC 424, 18 h, read-out: DIZ"}, "Escherichia coli [8]": {"test_system": "Escherichia coli", "test": "Antibacterial activity against Escherichia coli MTCC 1573 at 200 ug/ml after 18 hr by cup-plate method", "conditions": "MTCC 1573, 18 h, read-out: DIZ"}, "Bacillus subtilis [9]": {"test_system": "Bacillus subtilis", "test": "Antibacterial activity against Bacillus subtilis MTCC 441 at 500 ug/ml after 18 hr by cup plate method", "conditions": "MTCC 441, 18 h, read-out: DIZ"}, "Micrococcus luteus [10]": {"test_system": "Micrococcus luteus", "test": "Antibacterial activity against Micrococcus luteus MTCC 1538 at 100 ug/ml after 18 hr by cup-plate method", "conditions": "MTCC 1538, 18 h, read-out: DIZ"}, "Micrococcus luteus [11]": {"test_system": "Micrococcus luteus", "test": "Antibacterial activity against Micrococcus luteus MTCC 1538 at 1000 ug/ml after 18 hr by cup-plate method", "conditions": "MTCC 1538, 18 h, read-out: DIZ"}, "Escherichia coli [12]": {"test_system": "Escherichia coli", "test": "Antibacterial activity against Escherichia coli MTCC 1573 at 1500 ug/ml after 18 hr by cup-plate method", "conditions": "MTCC 1573, 18 h, read-out: DIZ"}, "Aspergillus niger [13]": {"test_system": "Aspergillus niger", "test": "Antifungal activity against Aspergillus niger MTCC 2546 at 100 ug/ml after 18 hr by cup-plate method", "conditions": "MTCC 2546, 18 h, read-out: DIZ"}, "Penicillium chrysogenum [14]": {"test_system": "Penicillium chrysogenum", "test": "Antifungal activity against Penicillium chrysogenum MTCC 161 after 24 hr by broth dilution method", "conditions": "MTCC 161, 24 h"}, "Penicillium chrysogenum [15]": {"test_system": "Penicillium chrysogenum", "test": "Antifungal activity against Penicillium chrysogenum MTCC 161 at 1500 ug/ml after 18 hr by cup-plate method", "conditions": "MTCC 161, 18 h, read-out: DIZ"}, "Micrococcus luteus [16]": {"test_system": "Micrococcus luteus", "test": "Antibacterial activity against Micrococcus luteus MTCC 1538 at 200 ug/ml after 18 hr by cup-plate method", "conditions": "MTCC 1538, 18 h, read-out: DIZ"}, "Staphylococcus aureus [17]": {"test_system": "Staphylococcus aureus", "test": "Antibacterial activity against Staphylococcus aureus MTCC 1430 at 1500 ug/ml after 18 hr by cup-plate method", "conditions": "MTCC 1430, 18 h, read-out: DIZ"}, "Pseudomonas aeruginosa [18]": {"test_system": "Pseudomonas aeruginosa", "test": "Antibacterial activity against Pseudomonas aeruginosa MTCC 424 at 500 ug/ml after 18 hr by cup-plate method", "conditions": "MTCC 424, 18 h, read-out: DIZ"}, "Staphylococcus aureus [19]": {"test_system": "Staphylococcus aureus", "test": "Antibacterial activity against Staphylococcus aureus MTCC 1430 at 500 ug/ml after 18 hr by cup-plate method", "conditions": "MTCC 1430, 18 h, read-out: DIZ"}, "Bacillus subtilis [20]": {"test_system": "Bacillus subtilis", "test": "Antibacterial activity against Bacillus subtilis MTCC 441 at 1500 ug/ml after 18 hr by cup plate method", "conditions": "MTCC 441, 18 h, read-out: DIZ"}, "Pseudomonas fluorescens [21]": {"test_system": "Pseudomonas fluorescens", "test": "Antibacterial activity against Pseudomonas fluorescens MTCC 2421 at 100 ug/ml after 18 hr by cup-plate method", "conditions": "MTCC 2421, 18 h, read-out: DIZ"}, "Bacillus pumilus": {"test_system": "Bacillus pumilus", "test": "Antibacterial activity against Bacillus pumilus MTCC 1456 at 200 ug/ml after 18 hr by cup-plate method", "conditions": "MTCC 1456, 18 h, read-out: DIZ"}, "Aspergillus niger [22]": {"test_system": "Aspergillus niger", "test": "Antifungal activity against Aspergillus niger MTCC 2546 at 1500 ug/ml after 18 hr by cup-plate method", "conditions": "MTCC 2546, 18 h, read-out: DIZ"}, "Aspergillus niger [23]": {"test_system": "Aspergillus niger", "test": "Antifungal activity against Aspergillus niger MTCC 2546 at 200 ug/ml after 18 hr by cup-plate method", "conditions": "MTCC 2546, 18 h, read-out: DIZ"}, "Escherichia coli [24]": {"test_system": "Escherichia coli", "test": "Antibacterial activity against Escherichia coli MTCC 1573 at 500 ug/ml after 18 hr by cup-plate method", "conditions": "MTCC 1573, 18 h, read-out: DIZ"}, "Escherichia coli [25]": {"test_system": "Escherichia coli", "test": "Antibacterial activity against Escherichia coli MTCC 1573 at 100 ug/ml after 18 hr by cup-plate method", "conditions": "MTCC 1573, 18 h, read-out: DIZ"}, "Micrococcus luteus [26]": {"test_system": "Micrococcus luteus", "test": "Antibacterial activity against Micrococcus luteus MTCC 1538 after 24 hr by broth dilution method", "conditions": "MTCC 1538, 24 h"}}}
{"smiles": "Clc1ccc(/N=C/c2cccs2)cc1", "values": [{"measurement": "zone of inhibition at 200 µg/mL", "setting": "Bacillus subtilis [1]", "result": 12, "unit": "mm"}, {"measurement": "MIC", "setting": "Aspergillus niger [2]", "result": 400, "unit": "µg/mL"}, {"measurement": "MIC", "setting": "Escherichia coli [3]", "result": 200, "unit": "µg/mL"}, {"measurement": "zone of inhibition at 1000 µg/mL", "setting": "Pseudomonas aeruginosa [4]", "result": 17, "unit": "mm"}, {"measurement": "MIC", "setting": "Bacillus subtilis [5]", "result": 400, "unit": "µg/mL"}, {"measurement": "zone of inhibition at 1000 µg/mL", "setting": "Pseudomonas fluorescens [6]", "result": 18, "unit": "mm"}, {"measurement": "zone of inhibition at 100 µg/mL", "setting": "Pseudomonas aeruginosa [7]", "result": 10, "unit": "mm"}, {"measurement": "zone of inhibition at 200 µg/mL", "setting": "Escherichia coli [8]", "result": 15, "unit": "mm"}, {"measurement": "zone of inhibition at 500 µg/mL", "setting": "Bacillus subtilis [9]", "result": 14, "unit": "mm"}, {"measurement": "zone of inhibition at 100 µg/mL", "setting": "Micrococcus luteus [10]", "result": 11, "unit": "mm"}, {"measurement": "zone of inhibition at 1000 µg/mL", "setting": "Micrococcus luteus [11]", "result": 20, "unit": "mm"}, {"measurement": "zone of inhibition at 1500 µg/mL", "setting": "Escherichia coli [12]", "result": 20, "unit": "mm"}, {"measurement": "zone of inhibition at 100 µg/mL", "setting": "Aspergillus niger [13]", "result": 10, "unit": "mm"}, {"measurement": "MIC", "setting": "Penicillium chrysogenum [14]", "result": 300, "unit": "µg/mL"}, {"measurement": "zone of inhibition at 1500 µg/mL", "setting": "Penicillium chrysogenum [15]", "result": 19, "unit": "mm"}, {"measurement": "zone of inhibition at 200 µg/mL", "setting": "Micrococcus luteus [16]", "result": 15, "unit": "mm"}, {"measurement": "zone of inhibition at 1500 µg/mL", "setting": "Staphylococcus aureus [17]", "result": 18, "unit": "mm"}, {"measurement": "zone of inhibition at 500 µg/mL", "setting": "Pseudomonas aeruginosa [18]", "result": 16, "unit": "mm"}, {"measurement": "zone of inhibition at 500 µg/mL", "setting": "Staphylococcus aureus [19]", "result": 15, "unit": "mm"}, {"measurement": "zone of inhibition at 1500 µg/mL", "setting": "Bacillus subtilis [20]", "result": 21, "unit": "mm"}, {"measurement": "zone of inhibition at 100 µg/mL", "setting": "Pseudomonas fluorescens [21]", "result": 11, "unit": "mm"}, {"measurement": "zone of inhibition at 200 µg/mL", "setting": "Bacillus pumilus", "result": 15, "unit": "mm"}, {"measurement": "zone of inhibition at 1500 µg/mL", "setting": "Aspergillus niger [22]", "result": 18, "unit": "mm"}, {"measurement": "zone of inhibition at 200 µg/mL", "setting": "Aspergillus niger [23]", "result": 11, "unit": "mm"}, {"measurement": "zone of inhibition at 500 µg/mL", "setting": "Escherichia coli [24]", "result": 16, "unit": "mm"}, {"measurement": "zone of inhibition at 100 µg/mL", "setting": "Escherichia coli [25]", "result": 13, "unit": "mm"}, {"measurement": "MIC", "setting": "Micrococcus luteus [26]", "result": 400, "unit": "µg/mL"}]}
